Laboratory results taken from patent US20260285853A1, “COMPOUNDS AND METHODS FOR MODULATING SPLICING” (REMIX THERAPEUTICS INC., priority 2023, published 2026).

Experiments:
Assay type in all cases: cell-based
HTT mRNA [1] = experiment: Splicing RT-qPCR assay, canonical (CJ) and alternative (AJ) junction mRNA, K562 cells; conditions: Homo sapiens, K562.3 cells, 24 hours; for AC50: read-out: HTT AJ (AC50, increase in AJ mRNA); for IC50: read-out: HTT CJ (IC50, decrease in CJ mRNA)
Method: (§1) Compounds described herein were used to modulate RNA transcript abundance in cells. The expression of a target mRNA was measured by detecting the formation of an exon-exon junction in the canonical transcript (CJ). A compound mediated exon-inclusion event was detected by observing an increase in formation of a new junction with an alternative exon (AJ). Real-time qPCR assays were used to detect these splicing switches and interrogate the potency of various compounds towards different target genes. A high-throughput real time quantitative PCR (RT-qPCR) assay was developed to measure these two isoforms of the mRNA (CJ and AJ) for exemplary genes, such as HTT, SMN2, and MYB, together with a control housekeeping gene, GAPDH or GUSB or PPIA, used for normalization. Briefly, the A673 or K562 cell line was treated with various compounds described herein (e.g., compounds of Formula (I)). After treatment, the levels of the HTT, MYB, or SMN2 mRNA targets were determined from each sample of cell lysate by cDNA synthesis followed by qPCR.
(§2) • Cells-to-CT 1-step kit: ThermoFisher A25602, Cells-to-CT lysis reagent: ThermoFisher 4391851C, TaqMan™ Fast Virus 1-Step Master Mix: ThermoFisher 4444436 • GAPDH: VIC-PL, ThermoFisher 4326317E (Assay: Hs99999905_m1)—used for K562/suspension cell lines • GUSB: VIC-PL, ThermoFisher 4326320E (Assay: Hs99999908_m1)—used for K562/suspension cell lines • PPIA: VIC-PL, ThermoFisher 4326316E (Assay: Hs99999904_m1)—used for A673/adherent cell lines
(§3) The K562 cell line was cultured in IMDM with 10% FBS. For K562, cells were diluted with full growth media and plated in either a 96-well plate (50,000 cells in 50 uL media per well) or a 384-well plate (8,000-40,000 cells in 45 uL media per well). An 11-point 3-fold serial dilution of the compounds were made in DMSO then diluted in media in an intermediate plate. Compound was transferred from the intermediate plate to the cell plate with the top dose at a final concentration of 10 uM in the well. Final DMSO concentration was kept at or below 0.25%. Final volume was 100 uL for 96-well plate and 50 uL for 384-well plate. The cell plate was then placed in an incubator at 37° C. with 5% CO2 for 24 hours.
(§4) The cells were then gently washed with 50 uL-100 uL cold PBS before proceeding to addition of lysis buffer. 30 uL-50 uL of room temperature lysis buffer with DNAse I (and optionally RNAsin) was added to each well. Cells were shaken/mixed thoroughly at room temperature for 5-10 minutes for lysis to take place and then 3 uL-5 uL of room temperature stop solution was added and wells were shaken/mixed again. After 2-5 minutes, the cell lysate plate was transferred to ice for RT-qPCR reaction setup. The lysates could also be frozen at −80° C. for later use.
(§5) In some cases, a direct lysis buffer was used. An appropriate volume of 3× lysis buffer (10 mM Tris, 150 mM NaCl, 1.5%-2.5% Igepal and 0.1-1 U/uL RNAsin, pH 7.4) was directly added to either K562 or A673 cells in media and mixed by pipetting 3 times. The plates were then incubated at room temperature with shaking/rocking for 20-50 minutes to allow for lysis to take place. After this time, the cell lysate plate was transferred to ice to set up for the RT-qPCR reactions. The lysates could also be frozen at −80° C. for later use.
(§6) To set up 10 uL RT-qPCR reactions, cell lysates were transferred to 384-well qPCR plates containing the master mix according to the table below. The plates were sealed, gently vortexed, and spun down before the run. The volumes were adjusted accordingly in some instances where the reaction was carried in 20 uL. The table below summarizes the components of the RT-qPCR reactions:
(§7) The RT-qPCR reaction was performed using a QuantStudio (ThermoFisher) under the following fast cycling conditions. All samples and standards were analyzed at least in duplicate. In some instances, bulk room temperature (RT) step of 5-10 minutes was completed for all plates before proceeding with qPCR. […]

MYB mRNA [2] = experiment: as above; conditions: Homo sapiens, K562.3 cells, 24 hours; for AC50: read-out: MYB AJ (AC50, increase in AJ mRNA); for IC50: read-out: MYB CJ (IC50, decrease in CJ mRNA)
Method: as §1, §2, §3, §4, §5, §6, §7

HTT mRNA [3] = experiment: Gene panel canonical junction qPCR assay, decrease in CJ mRNA, Table 3; conditions: decrease in canonical junction (CJ) mRNA, gene panel qPCR, Table 3
Summary of the method: (§8)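 Canonical exon-junction (CJ) transcript measured by 5′ nuclease RT-qPCR, normalized to GAPDH, GUSB or PPIA and to DMSO control (2^(−ΔΔCt)). A673 or K562 cells treated 24 h at 37° C with an 11-point 3-fold dilution series, top 10 uM, DMSO ≤0.25%. IC50 from 4-parameter logistic fit of percentage CJ decrease.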

MYB mRNA [4] = experiment: as above; conditions: decrease in canonical junction (CJ) mRNA, gene panel qPCR, Table 3
Summary of the method: as §8

SMN2 mRNA = experiment: as above; conditions: decrease in canonical junction (CJ) mRNA, gene panel qPCR, Table 3
Summary of the method: as §8

[5] = test system: SH-SY5Y (human neuroblastoma) cells; experiment: Cell viability, Cell Titer Glo 2.0 assay; conditions: read-out: Viability SHSY5Y.3 GI50
Summary of the method: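 SH-SY5Y cells were exposed to serially diluted compounds in IMDM with 10% FBS and 0.1% DMSO for 72 hours at 37° C., 5% CO2. Viability was measured by CellTiter-Glo 2.0 luminescence, with medium-only wells as blank.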

| SMILES | AC50 (HTT mRNA [1]) | IC50 (HTT mRNA [1]) | AC50 (MYB mRNA [2]) | IC50 (MYB mRNA [2]) | IC50 (HTT mRNA [3]) | IC50 (MYB mRNA [4]) | IC50 (SMN2 mRNA) | GI50 [5] |
| --- | --- | --- | --- | --- | --- | --- | --- | --- |
| Cc1cn2cc(NC(=O)c3ccc(N4CC[C@@H](NCC56CC(CO5)C6)C4)c4cn(C)nc34)cc(F)c2n1 [Compound 124, N-(8-fluoro-2-methyl-imidazo[1,2-a]pyridin-6-yl)-2-methyl-4-[(3R)-3-(2-oxabicyclo[2.1.1]hexan-1-ylmethylamino)pyrrolidin-1-yl]indazole-7-carboxamide] | > 10000 nM | > 10000 nM | 100 to 1000 nM | 1000 to 10000 nM | > 10000 nM | 1000 to 10000 nM | < 100 nM | 1000 to 10000 nM |
| Cc1cn2cc(NC(=O)c3c(F)cc(N4CCNCC4)c4c3CN(C)C4)cc(F)c2n1 [Compound 230, 5-fluoro-N-(8-fluoro-2-methyl-imidazo[1,2-a]pyridin-6-yl)-2-methyl-7-piperazin-1-yl-isoindoline-4-carboxamide] | > 10000 nM | > 10000 nM | > 10000 nM | > 10000 nM | > 10000 nM | > 10000 nM | 1000 to 10000 nM | > 10000 nM |
| Cc1cn2cc(C(=O)Nc3ccc(N4C[C@@H](C)N[C@@H](C)C4)c4cn[nH]c34)cc(F)c2n1 [Compound 215, N-[4-[(3R,5S)-3,5-dimethylpiperazin-1-yl]-1H-indazol-7-yl]-8-fluoro-2-methyl-imidazo[1,2-a]pyridine-6-carboxamide] | > 10000 nM | > 10000 nM | > 10000 nM | > 10000 nM | > 10000 nM | > 10000 nM | 1000 to 10000 nM | > 10000 nM |
| COc1c(NC(=O)c2ccc(N3CCNCC3)c3cn[nH]c23)cn2cc(C)nc2c1F [Compound 211, N-(8-fluoro-7-methoxy-2-methylimidazo[1,2-a]pyridin-6-yl)-4-(piperazin-1-yl)-1H-indazole-7-carboxamide] | 100 to 1000 nM | 100 to 1000 nM | < 100 nM | < 100 nM | 100 to 1000 nM | < 100 nM | < 100 nM | 100 to 1000 nM |
| Cc1cn2cc(NC(=O)c3ccc(N4CCC5NCCCC54)c4cn(C)nc34)cc(F)c2n1 (centres unmarked) [Compound 100, N-(8-fluoro-2-methylimidazo[1,2-a]pyridin-6-yl)-2-methyl-4-(octahydropyrrolo[3,2-b]pyridin-1-yl)indazole-7-carboxamide] | 1000 to 10000 nM | 1000 to 10000 nM | 100 to 1000 nM | 100 to 1000 nM | 1000 to 10000 nM | 100 to 1000 nM | < 100 nM | 1000 to 10000 nM |
| Cc1cn2cc(C(=O)Nc3ccc(N4CCNCC4)c4cn[nH]c34)cc(F)c2n1 [Compound 214, 8-fluoro-2-methyl-N-(4-piperazin-1-yl-1H-indazol-7-yl) imidazo[1,2-a]pyridine-6-carboxamide] | > 10000 nM | 1000 to 10000 nM | > 10000 nM | > 10000 nM | 1000 to 10000 nM | > 10000 nM | > 10000 nM | > 10000 nM |
| CN[C@@H]1CN(c2ccc(C(=O)Nc3cc(F)c4nc(C)cn4c3)c3nn(C)cc23)C[C@H]1C [Compound 107, N-(8-fluoro-2-methyl-imidazo[1,2-a]pyridin-6-yl)-2-methyl-4-[(3R,4S)-3-methyl-4-(methylamino)pyrrolidin-1-yl]indazole-7-carboxamide] | > 10000 nM | 1000 to 10000 nM | 100 to 1000 nM | 100 to 1000 nM | 1000 to 10000 nM | 100 to 1000 nM | < 100 nM | 1000 to 10000 nM |
| CN[C@H]1C[C@H](C)N(c2ccc(C(=O)Nc3cc(F)c4nc(C)cn4c3)c3nn(C)cc23)C1 [Compound 127, N-(8-fluoro-2-methyl-imidazo[1,2-a]pyridin-6-yl)-2-methyl-4-[(2S,4S)-2-methyl-4-(methylamino)-pyrrolidin-1-yl]indazole-7-carboxamide] | > 10000 nM | 1000 to 10000 nM | > 10000 nM | > 10000 nM | 1000 to 10000 nM | > 10000 nM | 100 to 1000 nM | 1000 to 10000 nM |
| Cc1cn2cc(NC(=O)c3ccc(N4CC[C@H](NCC56CC(CO5)C6)C4)c4cn(C)nc34)cc(F)c2n1 [Compound 125, N-(8-fluoro-2-methyl-imidazo[1,2-a]-pyridin-6-yl)-2-methyl-4-[(3R)-3-(2-oxabicyclo-[2.1.1]hexan-1-ylmethyl-amino)pyrrolidin-1-yl][6.1]-indazole-7-carboxamide] | > 10000 nM | > 10000 nM | 100 to 1000 nM | 100 to 1000 nM | > 10000 nM | 100 to 1000 nM | < 100 nM | 100 to 1000 nM |
| CCNC1CCN(c2ccc(C(=O)Nc3cn4cc(C)nc4c(F)c3OC)c3[nH]ncc23)CC1 [Compound 170, 4-[4-(ethylamino)piperidin-1-yl]-N-(8-fluoro-7-methoxy-2-methylimidazo[1,2-a]pyridin-6-yl)-1H-indazole-7-carboxamide] | 1000 to 10000 nM | 1000 to 10000 nM | 100 to 1000 nM | < 100 nM | 1000 to 10000 nM | < 100 nM | < 100 nM | 100 to 1000 nM |
| CCNC1CCN(c2ccc(C(=O)Nc3cc(F)c4nc(C)cn4c3)c3[nH]ncc23)CC1 [Compound 266, 4-[4-(ethylamino)piperidin-1-yl]-N-(8-fluoro-2-methyl-imidazo[1,2-a]pyridin-6-yl)-1H-indazole-7-carboxamide] | > 10000 nM | > 10000 nM | 100 to 1000 nM | 100 to 1000 nM | > 10000 nM | 100 to 1000 nM | < 100 nM | 1000 to 10000 nM |
| CN[C@@H]1CN(c2ccc(C(=O)Nc3cc(F)c4nc(C)cn4c3)c3nn(C)cc23)C[C@@H]1C [Compound 108, N-(8-fluoro-2-methyl-imidazo[1,2-a]pyridin-6-yl)-2-methyl-4-[(3S,4S)-3-methyl-4-(methylamino)-pyrrolidin-1-yl]indazole-7-carboxamide] | > 10000 nM | 1000 to 10000 nM | 100 to 1000 nM | 100 to 1000 nM | 1000 to 10000 nM | 100 to 1000 nM | < 100 nM | 1000 to 10000 nM |
| C#CCN[C@@H]1CCN(c2ccc(C(=O)Nc3cc(F)c4nc(C)cn4c3)c3nn(C)cc23)C1 [Compound 122] | 1000 to 10000 nM | 1000 to 10000 nM | 100 to 1000 nM | 100 to 1000 nM | 1000 to 10000 nM | 100 to 1000 nM | < 100 nM | 1000 to 10000 nM |
